Test results taken from the NIST ThermoML archive (doi:10.1016/j.fluid.2010.10.028).

Test: xn = mol fraction of the nth substance listed
Settings: Liquid, Vibrating tube method

CC(C)=O [acetone] + CCCCCCC
Settings	mass density [kg/m3]
377.4 K, 104790 kPa, x1 = 0.492	730.51
377.4 K, 104810 kPa, x1 = 0.801	762.89
377.4 K, 109780 kPa, x1 = 0.492	733.39
377.4 K, 109790 kPa, x1 = 0.801	765.94
377.4 K, 109820 kPa, x1 = 0.7024	753.96
377.4 K, 109850 kPa, x1 = 0.611	743.53
377.4 K, 114760 kPa, x1 = 0.801	768.91
377.4 K, 114820 kPa, x1 = 0.7024	756.89
377.4 K, 114850 kPa, x1 = 0.611	746.4
377.4 K, 119800 kPa, x1 = 0.7024	759.71
377.4 K, 119830 kPa, x1 = 0.492	738.96
377.4 K, 119830 kPa, x1 = 0.801	771.84
377.4 K, 124810 kPa, x1 = 0.7024	762.48
377.4 K, 124850 kPa, x1 = 0.492	741.61
377.4 K, 124850 kPa, x1 = 0.801	774.66
377.4 K, 129810 kPa, x1 = 0.7024	765.17
377.4 K, 129840 kPa, x1 = 0.611	754.52
377.4 K, 129840 kPa, x1 = 0.801	777.42
377.4 K, 129850 kPa, x1 = 0.492	744.18
377.41 K, 1430 kPa, x1 = 0.4	667.78
377.41 K, 1430 kPa, x1 = 0.8992	667.78
377.41 K, 5010 kPa, x1 = 0.4	675.34
377.41 K, 5010 kPa, x1 = 0.8992	675.34
377.41 K, 10000 kPa, x1 = 0.4	684.66
377.41 K, 10000 kPa, x1 = 0.8992	684.66
377.41 K, 14980 kPa, x1 = 0.4	692.99
377.41 K, 14980 kPa, x1 = 0.8992	692.99
377.41 K, 19960 kPa, x1 = 0.4	700.52
377.41 K, 19960 kPa, x1 = 0.8992	700.52
377.41 K, 24950 kPa, x1 = 0.4	707.43
377.41 K, 24950 kPa, x1 = 0.8992	707.43
377.41 K, 29840 kPa, x1 = 0.801	699.24
377.41 K, 29860 kPa, x1 = 0.492	670
377.41 K, 29930 kPa, x1 = 0.4	713.82
377.41 K, 29930 kPa, x1 = 0.8992	713.82
377.41 K, 34850 kPa, x1 = 0.801	705.2
377.41 K, 34930 kPa, x1 = 0.4	719.78
377.41 K, 34930 kPa, x1 = 0.8992	719.78
377.41 K, 39850 kPa, x1 = 0.801	710.77
377.41 K, 39910 kPa, x1 = 0.4	725.35
377.41 K, 39910 kPa, x1 = 0.8992	725.35
377.41 K, 44860 kPa, x1 = 0.801	716
377.41 K, 44890 kPa, x1 = 0.4	730.6
377.41 K, 44890 kPa, x1 = 0.8992	730.6
377.41 K, 49850 kPa, x1 = 0.801	720.93
377.41 K, 49880 kPa, x1 = 0.4	735.58
377.41 K, 49880 kPa, x1 = 0.8992	735.58
377.41 K, 54850 kPa, x1 = 0.492	695.17
377.41 K, 54860 kPa, x1 = 0.4	740.29
377.41 K, 54860 kPa, x1 = 0.8992	740.29
377.41 K, 59860 kPa, x1 = 0.4	744.79
377.41 K, 59860 kPa, x1 = 0.8992	744.79
377.41 K, 64820 kPa, x1 = 0.492	703.44
377.41 K, 64830 kPa, x1 = 0.4	749.06
377.41 K, 64830 kPa, x1 = 0.8992	749.06
377.41 K, 69810 kPa, x1 = 0.4	753.19
377.41 K, 69810 kPa, x1 = 0.8992	753.19
377.41 K, 74900 kPa, x1 = 0.492	711.06
377.41 K, 79760 kPa, x1 = 0.4	760.91
377.41 K, 79760 kPa, x1 = 0.8992	760.91
377.41 K, 84740 kPa, x1 = 0.4	764.58
377.41 K, 84740 kPa, x1 = 0.8992	764.58
377.41 K, 89720 kPa, x1 = 0.4	768.12
377.41 K, 89720 kPa, x1 = 0.8992	768.12
377.41 K, 94700 kPa, x1 = 0.4	771.53
377.41 K, 94700 kPa, x1 = 0.8992	771.53
377.41 K, 99670 kPa, x1 = 0.4	774.85
377.41 K, 99670 kPa, x1 = 0.8992	774.85
377.41 K, 104650 kPa, x1 = 0.4	778.05
377.41 K, 104650 kPa, x1 = 0.8992	778.05
377.41 K, 109630 kPa, x1 = 0.4	781.18
377.41 K, 109630 kPa, x1 = 0.8992	781.18
377.41 K, 114600 kPa, x1 = 0.4	784.19
377.41 K, 114600 kPa, x1 = 0.8992	784.19
377.41 K, 114850 kPa, x1 = 0.492	736.23
377.41 K, 119570 kPa, x1 = 0.4	787.15
377.41 K, 119570 kPa, x1 = 0.8992	787.15
377.41 K, 124540 kPa, x1 = 0.4	790.02
377.41 K, 124540 kPa, x1 = 0.8992	790.02
377.41 K, 129820 kPa, x1 = 0.4	793
377.41 K, 129820 kPa, x1 = 0.8992	793
387.3 K, 19850 kPa, x1 = 0.611	656.37
387.31 K, 1350 kPa, x1 = 0.611	620.65
387.31 K, 4850 kPa, x1 = 0.611	628.99
387.31 K, 9850 kPa, x1 = 0.611	639.33
387.31 K, 14880 kPa, x1 = 0.611	648.36
387.31 K, 39860 kPa, x1 = 0.611	682.12
387.31 K, 49860 kPa, x1 = 0.611	692.49
387.31 K, 54850 kPa, x1 = 0.611	697.23
387.31 K, 64910 kPa, x1 = 0.611	706.07
387.31 K, 84880 kPa, x1 = 0.611	721.4
